# Results taken from publication PMC5654082 (Malaria Journal, 2017).
# Counter-ions that a name gives are not always drawn. Marks after values point to notes of the source that are not given here.
# How the values were obtained:
# [1] = Thai children with uncomplicated multidrug-resistant falciparum malaria; (geometric) mean or median; cited from earlier work
# human OCT2 = biological target: T1, human OCT2 (Homo sapiens, UniProt O15244); assay: Inhibition of OCT2-mediated ASP uptake in transduced HEK293 cells; type: cell-based; settings: 10 µM ASP, 10 min, 37 °C
# T1 construct: host or cells: HEK293, baculovirus transduction (CMV promoter), transient
# T1 sequence (O15244 1-555): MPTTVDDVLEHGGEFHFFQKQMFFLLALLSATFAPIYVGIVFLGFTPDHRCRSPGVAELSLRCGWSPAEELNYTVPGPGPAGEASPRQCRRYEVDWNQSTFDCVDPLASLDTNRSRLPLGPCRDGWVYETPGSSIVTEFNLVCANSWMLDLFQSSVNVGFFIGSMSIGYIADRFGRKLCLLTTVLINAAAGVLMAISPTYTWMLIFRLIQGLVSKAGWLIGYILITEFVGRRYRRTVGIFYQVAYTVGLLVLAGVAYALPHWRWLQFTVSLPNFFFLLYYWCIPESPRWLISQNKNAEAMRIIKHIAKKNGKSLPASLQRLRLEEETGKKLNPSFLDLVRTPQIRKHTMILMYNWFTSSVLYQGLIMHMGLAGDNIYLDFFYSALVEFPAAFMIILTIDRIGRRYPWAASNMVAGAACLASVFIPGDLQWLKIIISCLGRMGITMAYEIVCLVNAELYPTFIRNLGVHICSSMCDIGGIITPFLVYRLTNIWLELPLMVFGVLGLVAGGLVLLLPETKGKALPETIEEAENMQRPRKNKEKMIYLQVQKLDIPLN
# Experimental: HEK293 cells were modified to transiently express (a combination of) human OCT1, OCT2, MATE1, MATE2-K, or eYFP. Briefly, cDNA of the respective genes was cloned downstream of a CMV promoter into a baculovirus, of which passage three was used to transduce HEK293 cells. These cells were seeded in poly-D-lysine coated 24- or 96-wells plates and grown in a 37 °C incubator at 5% CO2. […] After 24 h, cells were transduced with 30 µL virus (10 µL virus + 20 µL complete medium in case of 96-wells plates) or 2 × 15 µL virus for cells that required simultaneous expression of two transporters. Finally, 195 µL sodium butyrate (45 µL for 96-wells plates) was added to a final concentration of 2 mM to enhance protein expression.
# AMO (10 mM), ASP (1 mM), CQ (10 mM), PQ (10 mM) and PG (10 mM) were dissolved in MilliQ water. ART (10 mM), ATO (10 mM), DHA (10 mM), LUM (10 mM), MQ (10 mM), NMQ (20 mM), PYR (10 mM), QN (10 mM) were dissolved in DMSO. All compound stocks were stored at − 20 °C. Inhibition of OCT1- or OCT2-mediated ASP uptake by anti-malarials was performed in poly-D-lysine coated 96-wells plates 2 or 3 days following HEK293 cell transduction. In short, cells were washed with 125 µL 37 °C HBSS containing 10 mM HEPES, pH 7.4. […] ASP transport was stopped by washing with 125 µL ice-cold HBSS-HEPES buffer supplemented with 0.5% BSA.
# For each compound, a range of seven concentrations was used to determine the concentration at which ASP uptake was inhibited half maximally (IC50). At least three independent experiments (4 for QN) were performed for each drug in triplicate as described above. […] To generate the final dose–response inhibition curve per anti-malarial, percentage of uptake was averaged for each drug concentration per experiment and the resulting mean ± SEM corresponding to three or four independent experiments were plotted.
# [2] = cited from earlier work
compound,measurement,setting,value
"[H]/N=C(\N/C(=N/[H])Nc1ccc(Cl)cc1)NC(C)C [Proguanil, proguanil hydrochloride]",Cmax,[1],306^d [47] ng/mL
same,IC50,human OCT2; seven concentrations,13 µM
same,Relative ASP uptake (OCT2-mediated),"human OCT2; 50 µM anti-malarial, relative to solvent control fixed at 100%",19 ± 7%
same,Unbound fraction,[2],0.25 [39]
